Experimental data as given in ChEMBL document CHEMBL3244214, “Molar volume relationships and the specific inhibition of a synaptosomal enzyme by psychoactive cannabinoids” (J Med Chem, 1978).

How the values were obtained:
[1] = Antihemolytic potency against hypotonic lysis-induced erythrocytes (unknown origin) assessed as stabilization; assay type: functional, Erythrocyte
[2] = Inhibition of mouse brain synaptosomal Lysophosphatidylcholine acyltransferase using substrate [32P]lysophosphatidylcholine and oleoyl-CoA
[3] = Molar volume, Vm of the compound at zero temperature; assay type: physicochemical

Compound | pAH50 [1] | pKi [2] | Vm [3]
CC(C)[C@]12CC(=O)[C@H](C)[C@H]1C2 | 3 | 3.15 | 1.132 ×10⁻⁴ m3/mol
CCCCCc1cc(O)c2c(c1)OC(C)(C)[C@@H]1CCC(CO)=C[C@@H]21 | 3.72 | 4.07 | 2.746 ×10⁻⁴ m3/mol
CCCCCCc1cc(O)c2c(c1)OC(C)(C)C1=C2CC(C)CC1 (centres undefined) | 4.03 | 3.6 | 2.828 ×10⁻⁴ m3/mol
Oc1ccccc1Cl [2-CHLOROPHENOL] | 2.94 | 2.48 | 8.975 ×10⁻⁵ m3/mol
CCCCCc1cc(O)c(C/C=C(\C)CCC=C(C)C)c(O)c1 [CANNABIGEROL] | 4.66 | 3.59 | 2.861 ×10⁻⁴ m3/mol
CCCCCc1cc(O)c2c(c1)OC(C)(C)c1ccc(C)cc1-2 [CANNABINOL] | 4.4 | 3.26 | 2.601 ×10⁻⁴ m3/mol
CN(C)CCCN1c2ccccc2Sc2ccc(Cl)cc21 [CHLORPROMAZINE] | 5.09 | 3.1 | 2.406 ×10⁻⁴ m3/mol
CCCCCCCCCCO [DECANOL] | 5 | 3.77 | 1.576 ×10⁻⁴ m3/mol
CCCCCc1cc(O)c2c(c1)OC(C)(C)[C@@H]1CC=C(C)C[C@@H]21 [DELTA-8-TETRAHYDROCANNABINOL] | 3.85 | 4.24 | 2.687 ×10⁻⁴ m3/mol
CCCCCCCCCCCCO [DODECANOL] | 5.27 | 3.39 | 1.858 ×10⁻⁴ m3/mol
CCCCCc1cc(O)c2c(c1)OC(C)(C)[C@@H]1CCC(C)=C[C@@H]21 [DRONABINOL] | 4.1 | 6.52 | 2.687 ×10⁻⁴ m3/mol
CCCCCCCCCO [NONANOL] | 4.39 | 3.24 | 
CCCCCCCCO [OCTANOL] | 3.63 | 2.77 | 1.295 ×10⁻⁴ m3/mol
Oc1ccc(Cl)cc1 [PARACHLOROPHENOL] | 3.13 | 2.74 | 8.975 ×10⁻⁵ m3/mol
CC1=C(/C=C/C(C)=C/C=C/C(C)=C/CO)C(C)(C)CCC1 [RETINOL] | 5.49 | 3.82 | 2.865 ×10⁻⁴ m3/mol
